Experimental data published in patent publication US20180072675A1, “ANTIMICROBIAL PYRIDINOHYDRAZIDE AND HYDRAZOMETHYLPYRIDINE-BASED AGENTS” (Board of Supervisors of Louisiana State University and …, priority 2015, published 2018).
In brackets after ≈: the same amount, converted by molar mass. Read-outs that look alike come from different tables or passages of the source.

Experiments:
[1] = test system: Candida albicans ATCC Accession No. 10231; test: Checkerboard synergy assay with fluconazole; type: cell-based; details: for FIC Fluc: average FIC of fluconazole at varying concentrations of the test drug; for FIC Test: average FIC of the test drug at varying concentrations of fluconazole; for Activity (interaction with fluconazole): from FIC index; for FIC Index: sum of the two FICs, <1 synergistic, >=1 antagonistic
Method: Considering that two different modes of activity (cidal and static) were observed depending on the structural motifs present in our analogs, we performed a series of checkerboard assays to determine if representative active compounds were in fact acting in synergy with the azole, fluconazole. Each of these assays tested multiple concentrations of the selected analog in the presence of multiple concentrations of fluconazole. All checkerboard assays were prepared in 96-well plates. 200 μl of previously prepared drug solutions were added to each well in column 2. Using a multichannel pipette, 100 μl from each well in column 2 was serially diluted (1:2) horizontally across the plate, stopping at column 10. Contents of each well were mixed thoroughly. Column 11 was reserved for fluconazole MIC control and contained no other drug. 100 μl of media was added to each well, column 2-10. Each well was mixed thoroughly with a multichannel pipette. 100 μl was then removed and discarded from these wells. 100 μl of previously prepared fluconazole dilution was added to each well in row B. Using a multichannel pipette, 100 μl from each well was serially diluted (1:2) vertically down the plate, stopping at row F. Contents of each well were mixed thoroughly. Row G was reserved for tested drug MIC control and contained no fluconazole. Well G11 contained neither drug and served as a drug-free growth control. The final 100 μl from each well in row F was discarded.
The fungal samples were prepared from glycerol stocks of Candida albicans ATCC Accession No. 10231. The inoculum's concentration was adjusted to a McFarland standard between 0.08 and 0.12. Inoculum was then diluted at a ratio of 1:37.5 in buffered media. 100 μl of inoculum-media solution was added to each well. Following inoculation, the 96-well plates were wrapped in parafilm to prevent evaporation and incubated for overnight at 35° C. After 18 h, the wells showing growth were recorded.
Synergistic activity was determined based on the MIC read from these plates. The fractional inhibitory concentration (FIC) for a given well is the ratio of the minimum inhibitory concentration of one drug A in the presence another drug B to the minimum inhibitory concentration with only drug A. The FIC was calculated for the test drug in each of the wells along the growth/no-growth interface at varying concentrations of fluconazole, then these values were averaged to determine the average FIC for the test drug. The same process was used to calculate the average FIC for fluconazole at varying concentrations of the test drug. The sum of these two FICs gives the FIC index which can be used to determine the synergistic effect between the two drugs (Hsieh et al., Diagn. Microbiol. Infect. Dis. (1993) 16: 343-349). An FIC index value less than 1 indicated synergistic interactions between the two drugs while an FIC index value greater than or equal to 1 indicated antagonistic interactions.

Vero (kidney) cells = test: Mammalian cell toxicity, Promega CellTiter 96, kidney cells; type: cell-based; details: 24 h
Method: Cytotoxicity was determined using non-cancerous Vero cells (kidney-african green monkey) and liver cells (Hep-2G) in accordance with Promega CellTiter 96 Non-Radioactive Cell Proliferation Assay (cat # G4000). Compounds were diluted in media and all assays were done in triplicate. Average values are presented, with ±SD. Cells were incubated in the presence of the compounds for 24 h at 37° C. and 5% CO2. Tetrazolium dye solution was added to each well and allowed to incubate for 1-4 h. Solubilization/Stop solution was added and allowed to sit at room temperature for 1 h. Formazan product was scored spectrophotometrically with an automatic plate reader set at 570 nm. Positive control wells for cell death were briefly treated with 0.1% saponin, immediately prior to the addition of dye solution. Wells containing 1% DMSO and no drug were used as a negative control and the average absorbance at 570 nm were set to 100%. The percent of cells viable were calculated as a ratio between the average absorption at 570 nm of the drug containing wells/average absorption at 570 nm of the control (no drug). Ratios were multiplied by 100 to give the values as a percentage as expressed on the y-axis.
Cytotoxicity studies were performed in accordance with Promega CellTiter 96 Non-RadioactivCell Proliferation Assay (cat #G4000). All cytotoxicity studies used a negative control (wells of either kidney or liver cells containing 1% DMSO but lacking the analog), a positive control (wells of either kidney or liver cells treated with the known cytotoxic agent, saponin) and the serial dilutions of the novel analogs. All control (negative) wells were normalized to 100% viable cells to accurately show the percentage of either liver or kidney cells that remained alive and viable following either overnight incubation with the analogs or 5-minute treatment with 0.1% saponin.

[2] = test system: Candida albicans (ATCC Accession No. 10231); test: MIC80 fungal growth inhibition, C. albicans ATCC 10231; type: cell-based; details: for MIC80: Candida albicans
Method: (§1) The antifungal activity of the pyridinohydrazide and hydrazomethylpyridine derivatives described in the s were evaluated in vitro using Candida albicans (ATCC Accession No. 10231) and Candida glabrata (ATCC Accession No. 48435). In addition, the compounds were evaluated for activity against two previously-described clinical isolates of C. albicans known to have developed azole-resistance. These isolates were obtained over a two year period from a single AIDS patient and the development of the azole-resistance mechanisms have been extensively characterized (White T C. Antimicrob. Agents Chemother. (1997) 41: 1482-1487). MIC assays were performed on the clinical isolates 1 and 17 (annotated TW1 and TW17, respectively), where isolate 1 was used as an azole-susceptible control and isolate 17 was considered azole-resistant. All assays were done in accordance with NCCLS reference documents (Clinical Laboratory and Standards Institute. Reference method for Broth Dilution Antifungal Susceptibility Testing of Yeasts: Approved Standard. M27-A3 2010; 28). The results of these screenings are summarized in Tables 1-9 (Examples 20-27) as the minimum concentrations that inhibited more than 80% of fungal growth (MIC80) as compared to positive controls containing 1% DMSO. Assays were performed in HEPES-buffered RPMI-1640 media. All MIC screens used a visual scoring method as opposed to spectroscopic analysis, due to the altered absorbance spectra of many of the compounds.

[3] = test system: C. albicans clinical isolate 17 (TW17); test: MIC80 fungal growth inhibition, clinical isolate TW17; type: cell-based, Candida albicans; details: for MIC80: Candida albicans, read-out: MIC80 TW17
Method: as §1

[4] = test system: C. albicans clinical isolate 1 (TW1); test: MIC80 fungal growth inhibition, clinical isolate TW1; type: cell-based, Candida albicans; details: for MIC80: Candida albicans, read-out: MIC80 TW1
Method: as §1

[5] = ATCC10231, Azole-susceptible, >80% growth inhibition, visual scoring, read-out: MIC80 C. albicans ATCC No. 10231
[6] = Azole-resistant, >80% growth inhibition, visual scoring
[7] = Azole-susceptible, >80% growth inhibition, visual scoring

| SMILES | MIC80 [2, 5] | MIC80 [3, 6] | MIC80 [4, 7] | FIC Fluc [1] | FIC Test [1] | Activity (interaction with fluconazole) [1] | FIC Index [1] | cell toxicity (Vero (kidney) cells; 5 times the MIC) | MIC80 C. albicans ATCC No. 10231 [2, 7] | MIC80 TW17 [3, 6] | MIC80 TW1 [4, 7] | cell toxicity (Vero (kidney) cells; 100× MIC) | cell toxicity (Vero (kidney) cells; through 10× MIC) | MIC80 ([2]; ATCC10231, read-out: MIC80 C. albicans ATCC No. 10231) | MIC80 [3] | MIC80 [4] |
| --- | --- | --- | --- | --- | --- | --- | --- | --- | --- | --- | --- | --- | --- | --- | --- | --- |
| O=C(NN=Cc1cc([N+](=O)[O-])ccc1O)c1cccnc1 [AR12] | – | – | – | 1.00 | 1.00 | Antagonistic | 2.00 | elevated toxicity | 4 µg/mL (≈ 14 µM) | 8 µg/mL (≈ 27.9 µM) | 8 µg/mL (≈ 27.9 µM) | – | – | – | – | – |
| C(=N\Nc1ccccc1)/c1cccnc1 [AR44] | 16 µg/mL (≈ 81.1 µM) | 8 µg/mL (≈ 40.6 µM) | 16 µg/mL (≈ 81.1 µM) | 1.00 | 0.90 | Antagonistic | 1.90 | – | – | – | – | toxic | no cell toxicity | – | – | – |
| C(=N\Nc1ccccc1)/c1ccncc1 [AR48] | – | – | – | 3.87 | 0.80 | Antagonistic | 4.67 | – | – | – | – | toxic | no cell toxicity | 31 µg/mL (≈ 157 µM) | 8 µg/mL (≈ 40.6 µM) | 16 µg/mL (≈ 81.1 µM) |
| O=C(NN=Cc1cc([N+](=O)[O-])ccc1O)c1ccncc1 [AR18] | – | – | – | 1.00 | 1.00 | Antagonistic | 2.00 | – | 4 µg/mL (≈ 14 µM) | 8 µg/mL (≈ 27.9 µM) | 8 µg/mL (≈ 27.9 µM) | minimal cytotoxicity | not toxic | – | – | – |

More lines, main results first:

| MIC80 [2, 5] | MIC80 [3, 6] | MIC80 [4, 7] | SMILES | FIC Fluc [1] | FIC Test [1] | Activity (interaction with fluconazole) [1] | FIC Index [1] | cell toxicity (Vero (kidney) cells; 5 times the MIC) | MIC80 C. albicans ATCC No. 10231 [2, 7] | MIC80 TW17 [3, 6] | MIC80 TW1 [4, 7] | cell toxicity (Vero (kidney) cells; 100× MIC) | cell toxicity (Vero (kidney) cells; through 10× MIC) | MIC80 ([2]; ATCC10231, read-out: MIC80 C. albicans ATCC No. 10231) | MIC80 [3] | MIC80 [4] |
| --- | --- | --- | --- | --- | --- | --- | --- | --- | --- | --- | --- | --- | --- | --- | --- | --- |
| 16 µg/mL (≈ 47.6 µM) | 8 µg/mL (≈ 23.8 µM) | 8 µg/mL (≈ 23.8 µM) | O=C(N/N=C/c1cc(Br)ccc1O)c1ccc[n+]([O-])c1 [AR27] | 0.92 | 1.00 | Antagonistic | 1.92 | cytotoxic | – | – | – | – | – | – | – | – |
| 2 µg/mL (≈ 7.83 µM) | 8 µg/mL (≈ 31.3 µM) | 4 µg/mL (≈ 15.7 µM) | Cc1ccc(O)c(/C=N/NC(=O)c2ccccn2)c1 [AR2, (E)-N′-(2-Hydroxy-5-methylbenzylidene)picolinohydrazide] | 1.00 | 1.00 | Antagonistic | 2.00 | – | – | – | – | minimal toxicity | – | – | – | – |
